Source: patent US20260265249A1, “PHARMACEUTICALLY ACCEPTABLE SALT AND CRYSTAL FORM OF 1,4-DIHYDRO-1,6-NAPHTHYRIDINE AMIDE COMPOUND AND PREPARATION METHOD THEREFOR” (JIANGSU HENGRUI PHARMACEUTICALS CO., LTD., priority 2023, published 2026)

Key:
Type in all cases: physicochemical
[1] = Influencing factor stability study (open containers; light, high temperature, high humidity; 30 days)
[2] = DVS (dynamic vapor sorption) hygroscopicity test
Source text: According to the description of hygroscopicity characteristics and the definitions of hygroscopic weight gains in “General Rule 9103, Guidelines for Hygroscopicity” in the Chinese Pharmacopoeia, Volume IV, 2015 Edition, • deliquescent: sufficient water is absorbed to form a liquid; • extremely hygroscopic: the hygroscopic weight gain is not less than 15%; • hygroscopic: the hygroscopic weight gain is less than 15% but not less than 2%; • slightly hygroscopic: the hygroscopic weight gain is less than 2% but not less than 0.2%; • nonhygroscopic or practically nonhygroscopic: the hygroscopic weight gain is less than 0.2%.
TGA refers to thermogravimetric analysis: The analysis was performed using a METTLER TOLEDO TGA 2 thermogravimetric analyzer, with a temperature ramp rate of 10° C./min, specific temperature ranges shown in corresponding patterns (mostly 30-350° C.), and a nitrogen purge speed of 50 mL/min. DVS refers to dynamic vapor sorption: The analysis was performed using SMS DVS Advantage; at 25° C., the humidity was changed as follows: 50%-95%-0%-95%-50%, in steps of 10% (5% for the last step) (specific humidity ranges are shown in corresponding patterns, and those listed here were used in most cases); the criterion was dm/dt being not greater than 0.002%.

[3] = Long-term/accelerated stability study (sealed in aluminum foil bags, 25° C./60% RH and 40° C./75% RH)
[4] = open container, 60° C., 1 month
[5] = open container, 60° C., 14 days
[6] = open container, 75% RH, 1 month
[7] = open container, 75% RH, 14 days
[8] = open container, 92.5% RH, 1 month
[9] = open container, 92.5% RH, 7 days
[10] = open container, 92.5% RH, 14 days
[11] = open container, light exposure (4500 Lux), 7 days
[12] = open container, light exposure (4500 Lux), 14 days
[13] = accelerated experimental conditions, 70% RH
[14] = normal storage conditions, 25° C. and 60% RH
[15] = 25° C.-60% RH, sealed aluminum foil bag, 1 month
[16] = 25° C.-60% RH, sealed aluminum foil bag, 2 months
[17] = 25° C.-60% RH, sealed aluminum foil bag, 3 months
[18] = 25° C.-60% RH, sealed aluminum foil bag, 6 months
[19] = 40° C.-75% RH, sealed aluminum foil bag, 1 month
[20] = 40° C.-75% RH, sealed aluminum foil bag, 2 months
[21] = 40° C.-75% RH, sealed aluminum foil bag, 3 months
[22] = 40° C.-75% RH, sealed aluminum foil bag, 6 months
[23] = open container, 40° C., 1 month
[24] = open container, 40° C., 14 days
[25] = open container, light exposure (4500 Lux), 1 month
[26] = sealed aluminum foil bag, 25° C.-60% RH, 1 month
[27] = sealed aluminum foil bag, 25° C.-60% RH, 2 months
[28] = sealed aluminum foil bag, 25° C.-60% RH, 3 months
[29] = sealed aluminum foil bag, 25° C.-60% RH, 6 months
[30] = sealed aluminum foil bag, 40° C.-75% RH, 1 month
[31] = sealed aluminum foil bag, 40° C.-75% RH, 2 months
[32] = sealed aluminum foil bag, 40° C.-75% RH, 3 months
[33] = sealed aluminum foil bag, 40° C.-75% RH, 6 months

## Br.[2H]C([2H])([2H])Oc1cc(C#N)ccc1[C@@H]1C(C(N)=O)=C(C)Nc2c(C)cnc(OCC)c21 [crystal form I of hydrobromide]
[1]; [4]
  Crystal form: No change
  Purity: 98.2%
[1]; open container, 60° C., 7 days
  Crystal form: No change
  Purity: 99.2%
[1]; [5]
  Crystal form: No change
  Purity: 99.0%
[1]; [6]
  Crystal form: No change
  Purity: 99.6%
[1]; open container, 75% RH, 7 days
  Crystal form: No change
  Purity: 99.7%
[1]; [7]
  Crystal form: No change
  Purity: 99.6%
[1]; [8]
  Crystal form: No change
[1]; [9]
  Crystal form: No change
  Purity: 99.7%
[1]; [10]
  Crystal form: No change
[1]; [11]
  Crystal form: No change
[1]; [12]
  Crystal form: No change
[2]; [13]
  hygroscopic weight gain: about 13.2%
[2]
  crystal form re-identified after the DVS test: did not change
[2]; extreme conditions, 90% RH
  hygroscopic weight gain: about 13.8%
[2]; [14]
  hygroscopic weight gain: about 12.8%
[3]; 0 days (initial)
  Purity (%): 99.7%
[3]; [15]
  Crystal form: No change
  Purity (%): 99.8%
[3]; [16]
  Crystal form: No change
  Purity (%): 99.7%
[3]; [17]
  Crystal form: No change
  Purity (%): 99.7%
[3]; [18]
  Crystal form: No change
  Purity (%): 99.7%
[3]; [19]
  Crystal form: No change
  Purity (%): 99.6%
[3]; [20]
  Crystal form: No change
  Purity (%): 99.4%
[3]; [21]
  Crystal form: No change
  Purity (%): 97.9%
[3]; [22]
  Crystal form: No change
  Purity (%): 97.9%
[3]; under long-term conditions
  long-term/accelerated stability (conclusion): stable

## [2H]C([2H])([2H])Oc1cc(C#N)ccc1[C@@H]1C(C(N)=O)=C(C)Nc2c(C)cnc(OCC)c21 [crystal form A]
[1]; 0 days
  Crystal form: Crystal form A
  Purity: 99.7%
[1]; [23]
  Crystal form: No change
  Purity: 99.4%
[1]; open container, 40° C., 7 days
  Crystal form: No change
  Purity: 99.6%
[1]; [24]
  Crystal form: No change
  Purity: 99.6%
[1]; [4]
  Crystal form: No change
  Purity: 99.4%
[1]; open container, 60° C., 7 days
  Crystal form: No change
  Purity: 99.7%
[1]; [5]
  Crystal form: No change
  Purity: 99.6%
[1]; [6]
  Crystal form: No change
  Purity: 99.7%
[1]; open container, 75% RH, 7 days
  Crystal form: No change
  Purity: 99.6%
[1]; [7]
  Crystal form: No change
  Purity: 99.7%
[1]; [8]
  Crystal form: No change
  Purity: 99.7%
[1]; [9]
  Crystal form: No change
  Purity: 99.6%
[1]; [10]
  Crystal form: No change
  Purity: 99.7%
[1]; [25]
  Crystal form: No change
  Purity: 97.6%
[1]; [11]
  Crystal form: No change
  Purity: 99.4%
[1]; [12]
  Crystal form: No change
  Purity: 99.1%
[1]; under other conditions (40° C., 60° C., 75% RH, 92.5% RH)
  stability in the influencing factor experiment (conclusion): stable
[1]; under the light exposure condition
  stability in the influencing factor experiment (conclusion): degraded
[2]; [13]
  hygroscopic weight gain: about 0.7%
[2]
  crystal form re-identified after the DVS test: did not change
[2]; extreme conditions, 90% RH
  hygroscopic weight gain: about 1.5%
[2]; [14]
  hygroscopic weight gain: about 0.5%
[3]; 0 days
  Crystal form: Crystal form A
  Purity: 99.7%
[3]; [26]
  Crystal form: No change
  Purity: 99.7%
[3]; [27]
  Crystal form: No change
  Purity: 99.7%
[3]; [28]
  Crystal form: No change
  Purity: 99.7%
[3]; [29]
  Crystal form: No change
  Purity: 99.7%
[3]; [30]
  Crystal form: No change
  Purity: 99.7%
[3]; [31]
  Crystal form: No change
  Purity: 99.6%
[3]; [32]
  Crystal form: No change
  Purity: 99.6%
[3]; [33]
  Crystal form: No change
  Purity: 99.5%
[3]; storage under long-term accelerated conditions for 6 months
  long-term/accelerated stability (conclusion): good physical and chemical stability
